From patent US7507864B2, “Method for the synthesis of curcumin analogues” (Salisbury University, priority 2006, dated 2009)

Experiment: Solubility in organic solvents
Assay type: physicochemical
Settings: for solubility in acetone: solvent acetone; for solubility in ethanol: solvent ethanol; for solubility in ethyl acetate: solvent ethyl acetate; for solubility in isobutyl acetate: solvent isobutyl acetate
Source text: Curcumin is a bright red product once purified and maintains the vanilla fragrance due to the presence of methoxy groups from the starting product vanillin. It is soluble in acetone, ethyl acetate, ethanol, and isobutyl acetate. The solubility of bisdemethoxycurcumin, however, is slightly different. It is very soluble in ethanol and isobutyl acetate but acetone and ethyl acetate solubility is limited. Bisdemethoxycurcumin maintains a pumpkin-orange appearance and is more crystalline in nature than curcumin.

solubility in acetone	solubility in ethanol	solubility in ethyl acetate	solubility in isobutyl acetate	SMILES
soluble	soluble	soluble	soluble	COc1cc(/C=C/C(=O)CC(=O)/C=C/c2ccc(O)c(OC)c2)ccc1O [Curcumin, 1,7-bis(4-hydroxy-3-methoxyphenyl)-1,6-heptadiene-3,5-dione]
limited	very soluble	limited	very soluble	O=C(/C=C(O)/C=C/c1ccc(O)cc1)/C=C/c1ccc(O)cc1 [bisdemethoxycurcumin, 1,7-bis-(4-hydroxyphenyl)-1,6-heptadiene-3,5-dione]
